Results from ChEMBL document CHEMBL1121531, “Steroidal alpha-methylene delta-lactones as potential antitumor agents” (J Med Chem, 1980).
Values after ≈ are worked out from the molar mass of the structure shown.

Tests used:
Assay type in all cases: cell-based
[1] = Dose that required to inhibit cell growth for cytotoxicity against human nasopharyngeal carcinoma (KB) cells in culture; details: read-out: LD50 (the source's name)
[2] = (§1) Dose that required to inhibit cell growth for cytotoxicity against HEp-2 cells in culture; details: human, HEp-2 cells; read-out: LD50 (the source's name)
[3] = test system: HEp-2; assay: as §1; details: human, hep-2

Compound `C=C1CC2C3CC[C@H]4CC(O)CCC4(C)C3CCC2(C)OC1=O` (some centres undefined) has a GI50 [1] of 1 µg/mL (≈ 3.14 µM).

`C=C1CC2(C)C3CCC4(C)C(OC(C)=O)CCC4C3CC[C@H]2OC1=O` (some centres undefined) showed a GI50 [1] of 0.72 µg/mL (≈ 2.08 µM).

In the case of `C=C1CC2(C)C3CCC4(C)C(O)CCC4C3CC[C@H]2OC1=O` (some centres undefined), the GI50 [1] is reported as 0.76 µg/mL (≈ 2.5 µM).

For `C=C1CC2(CCC3(C)[C@@H](CC[C@H]4[C@@H]5CCC(=O)C5(C)CC[C@@H]43)C2)OC1=O` (some centres undefined), the CC50 [2] was 0.58 µg/mL (≈ 1.63 µM).

`C=C1CC2(C)C3CCC4(C)C(CCCCCCCC)CCC4C3CC[C@H]2OC1=O` (some centres undefined) gave a GI50 [1] of 0.82 µg/mL (≈ 2.05 µM).

`CC(=O)[C@H]1CC[C@H]2[C@@H]3CC[C@H]4CC(=O)CC[C@]4(C)[C@H]3CC[C@]12C` showed a CC50 [2] of 0.84 µg/mL (≈ 2.65 µM).

Work on `C[C@]12CC[C@H]3[C@@H](CCC4=CC(=O)CC[C@@]43C)[C@@H]1CC[C@@H]2O` [TESTOSTERONE] yielded a GI50 [1] of 1.27 µg/mL (≈ 4.4 µM), a CC50 [2] of 0.44 µg/mL (≈ 1.53 µM) and an LD50 [3] of 0.58 µg/mL.
